Reference: patent publication US20180162825A1, “NOVEL DGAT2 INHIBITORS” (Eli Lilly and Company, priority 2015, published 2018)

Columns and labels:
human DGAT2 [1] = biological target: T1, human DGAT2 (Homo sapiens, UniProt Q96PD7); test: Diacylglycerol Acyltransferase 2 (DGAT2) Biochemical Assay; details: geometric mean; recombinant human DGAT2 with FLAG tag, 1 hr at RT, 14C oleoyl-CoA; read-out: IC50 (nM), ± SD, (n) = number of experiments
T1 sequence (Q96PD7 1-388): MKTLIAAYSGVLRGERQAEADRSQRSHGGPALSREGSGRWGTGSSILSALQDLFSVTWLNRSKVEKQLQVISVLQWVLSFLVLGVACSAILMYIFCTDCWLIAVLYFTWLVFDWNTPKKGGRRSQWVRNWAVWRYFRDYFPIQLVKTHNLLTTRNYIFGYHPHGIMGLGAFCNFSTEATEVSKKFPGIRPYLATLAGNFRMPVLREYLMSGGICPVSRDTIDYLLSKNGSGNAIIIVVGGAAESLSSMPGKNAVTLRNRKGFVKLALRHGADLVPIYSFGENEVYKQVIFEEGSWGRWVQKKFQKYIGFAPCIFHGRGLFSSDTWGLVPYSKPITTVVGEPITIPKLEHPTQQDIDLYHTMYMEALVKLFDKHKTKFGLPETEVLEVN
Method: The in vitro inhibitory activity of compounds against human DGAT2 is evaluated in this assay. The assay uses recombinant human DGAT2 with a FLAG tag at the amino terminus, expressed in genetically engineered insect SF9 cells, and purified through affinity chromatography.
DGAT2 catalyzes transfer of an acyl moiety from acyl-Coenzyme A onto diacylglycerol, to form triacylglycerol. In this particular embodiment of the assay oleate is used as the acyl moiety that is transferred. To facilitate miscibility of all lipid components, all lipids used in the assay contain oleyl moiety as the only acyl group.
Prior to starting the assay prepare a mixture of dioleoyl glycerol (DOG) and dioleoyl phosphatidylcholine (DOPC) at 3:7 molar ratio. Mix appropriate amount of DOPC and DOG dissolved in chloroform in a borosilicate glass test tube. Evaporate the solvent under stream of argon to form a film of lipid. Subsequently, place the test-tube under vacuum (<1 Torr) for 2 hrs to remove residual solvent. Add appropriate amount of buffer containing TrisHCl (pH 7.5, 150 mM), and sucrose (250 mM) to achieve 20 mM concentration of total lipid. Assure complete suspension of the lipid film by vigorous vortexing. Sonicate the contents of the tube in a water bath sonicator under standing wave conditions until the suspension turns from turbid to translucent, to assure conversion of liposomes into small unilamellar vesicles (SUVs)
Prepare the test compound by dissolving it and serially diluting in half-log increments in DMSO. For each concentration, perform 10-fold step dilution of compound solution in DMSO into buffer containing TrisHCl (pH 7.5, 150 mM), and sucrose (250 mM).
Mix SUV suspensions and compound solution with other components of the assay to achieve the following concentration of individual ingredients: TrisHCl (pH 7.5, 150 mM), sucrose (250 mM), MgCl2 (5 mM,), dithiothreitol (DTT) (0.5 mM), oleoyl coenzyme A (oleoyl-CoA) (12 μM), 1-^14C oleoyl coenzyme A (oleyl-CoA-^14C) (8 μM), dioleoyl glycerol (DOG) (0.6 mM), and dioleoyl phosphatidylcholine (DOPC) (1.4 mM), DGAT2 protein (0.5 nM), DMSO (1%, v/v), with test compound concentration within a 1 nM to 100 μM range, in 30 μl total volume. Incubate the reaction for 1 hr at RT (approximately 21° C.) in individual wells of a 384-well plate. After 1 hr, stop the reaction by adding 23 μl stop solution containing a mixture of isopropanol:EtOH:heptane:DI water: 1 N NaOH (59:12.5:15:11:2.5, by volume). Add 42 μL Microscint E and then incubate mixture overnight to extract the triglyceride into the organic solvent layer containing scintillant. Measure the radioactivity using a Perkin-Elmer TopCount instrument. […] Calculate the degree of inhibition of DGAT2 by measuring the radioactivity at 10 different concentrations for each compound. […]

human DGAT2 [2] = biological target: T1, human DGAT2; test: Diacylglycerol Acyltransferase 2 (DGAT2) Cell-Based Assay (HepG2); set-up: This assay uses human hepatoma cell-line, HepG2, as a source of acyltransferase activity; endogenous in cells; host or cells: HepG2; details: geometric mean; HepG2 cells, incorporation of 13C18-oleate into triolein normalized to POPC; read-out: IC50 (nM) mean ± SD, (n) = number of experiments
Method: The inhibitory activity of compounds against human DGAT2 in a cell environment is evaluated in this assay. This assay uses human hepatoma cell-line, HepG2, as a source of acyltransferase activity.
HepG2 cell line is a commonly used model for metabolic reactions that occur in human hepatocytes in vivo. Synthesis of triglyceride in this cell line is followed by measuring incorporation of isotopically labeled oleate into triolein (a triglyceride with 3 oleoyl moieties).
Dispense the HepG2 cells into a 96-well microplate, which has been previously coated with Poly-D-lysine, in an amount of 50,000 cells/well in 100 μL Minimal Essential Media (MEM) with 10% Fetal Bovine Serum (FBS). Incubate the cells for 16 hr at 37° C. Replace the cell culture medium with MEM containing 2% Bovine Serum Albumin. Dissolve the test compound in 0.5% DMSO and prepare serial dilutions in half-log increments. Add the serially diluted test compound into separate wells. Incubate for 0.5 hr at 37° C. Thereafter replace the cell culture medium with a medium of the same composition, but which includes 50 μM ^13C18-oleate and 300 μM hydropropyl-β-cyclodextrine. Incubate for an additional 4 hr at 37° C. Discard the cell culture medium by flipping the microplate over thereby draining the wells and then soaking up any residual media from the wells with a paper towel. Dry the microplate at ambient temperature (˜21° C.) for 10 min. Add aliquots of 125 μL of solvent (isopropyl alcohol:tetrahydrofuran:methanol:chloroform, in a ratio of 90:10:2.5:2.5 v/v), an internal standard for phosphatidylcholine (PC), and an internal standard for triacylglycerol (TG) to each well. Seal and shake the plate for 30 min at ambient temperature. Transfer 100 μL aliquots of the upper phase of each well into a wells of a deep-well plate (2 mL per well). Analyze the contents of the wells using mass-spectrometry analysis. Measure both triolein with a single ^13C18-oleate moiety and POPC using liquid chromatography/mass spectroscopy method (LC/MS). The degree of incorporation of a single ^13C18-oleate moiety into triolein, normalized to the concentration of 1-palmitoyl-2-oleoyl-phosphatidylcholine (POPC) is used as a measure of DGAT2 activity.
Determine the IC50 for each compound, using a 4 parameter logistic curve fit.

plasma triglycerides = test: In Vivo Pharmacodynamic Assay: reduction in plasma triglycerides in mice; details: Mus musculus, po; male C57BL6 mice, gavage, with 3 mg/kg DGAT1 inhibitor and tyloxapol; reduction in plasma triglycerides vs control; read-out: ED50 (mg/kg) SD
Method: This assay measures the potency of compounds by measuring the reduction in plasma triglycerides in mice treated with the test compounds compared to control animals that are treated only with the vehicle solution. Male, C57BL6 mice (10-11 weeks old, each approximately 22 g in weight) are used in this assay.
Triglycerides synthesized in the liver are secreted into circulation as a component of the Very Low Density Lipoprotein (VLDL). To prevent degradation of triglycerides in circulation by the Lipoprotein Lipase (LPL), this assay uses IV injection of a detergent, tyloxapol, which inhibits activity of LPL. Since another enzyme, DGAT1, participates in the synthesis of liver triglyceride, a saturating dose of a DGAT1 inhibitor (sodium {trans-4-[4-(4-amino-7,7-dimethyl-7H-pyrimido[4,5-b][1,4]oxazin-6-yl)phenyl]cyclohexyl}acetate, IUPAC ACDLABS naming convention, see Dow et al. Bioorg. & Med. Chem., (2011) 21(20), 6122-6128) is also used in this assay. […]
Collect the blood via cardiac puncture into tube containing the anti-coagulant EDTA. […] Freeze the plasma samples on dry ice until they are to be analyzed. […] Reduction in total triglycerides in the test mice is calculated relative to the concentration of triglycerides in the control mice.

[3] = test system: LDL-c, VLDL-c and TG serum concentrations; test: In Vivo Efficacy Model: LDL-c, VLDL-c and TG in LDL receptor-deficient mice; details: 30 mg/kg bid, fourteen days, oral gavage, vs control group
Excerpt: The compounds described herein can be evaluated in an in vivo efficacy model. This assay measures the potency of compounds by measuring the reduction in low density lipoprotein cholesterol (LDL-c), very low density lipoprotein cholesterol (VLDL-c), and triglycerides (TG). Male, LDL receptor-deficient mice (29 weeks old, each approximately 30 g in weight) are used in this assay.
Feed the mice a standard mouse chow diet for two weeks prior to dosing. Prepare a test solution for oral gavage by suspend the compounds in acacia at 0.3, 1, and 3 mg/mL. Separate the mice into a test group and a control group. Thereafter at the first day of the third week dose the mice in the test group with the test solution for fourteen days, BID. Similarly dose the mice in the control group with just the vehicle without any of the test compound. Four hours after the last dose euthanize the mice with CO2. Immediately collect the blood via cardiac puncture. Isolate the serum to measure serum triglycerides as well as cholesterol in individual lipoprotein fractions. Separate the lipoprotein fractions by known HPLC methods. Determine the cholesterol concentration associated with each lipoprotein fraction by a colorimetric method (Roche Cholesterol/HP Reagent 11875540), using isolated lipoprotein fractions with known cholesterol concentration as standards. Results obtained at the highest dose, can be expressed as the percentage of change in comparison of the LDL-c, VLDL-c and TG serum concentrations of mice in the test group to those of mice n the control group.
The results for the compound of Example 24 at 30 mg/kg bid are listed below in Table 21.

[4] = therapy with lomitapide; cited from earlier work

Row | SMILES | IC50 (human DGAT2 [1]) [nM] | IC50 (human DGAT2 [2]) [nM] | ED50 (plasma triglycerides) [mg/kg] | LDL-c % change [3] [%] | Triglycerides % change [3] [%] | VLDL-c % change [3] [%] | increase in the liver fat content [4] [fold]
1 | CCc1cnc(NCc2ccnc(Oc3ccc(CS(N)(=O)=O)cc3F)c2)nc1 [Example 7, [4-[[4-[[(5-ethylpyrimidin-2-yl)amino]methyl]-2-pyridyl]oxy]-3-fluoro-phenyl]methanesulfonamide] | 27 ± 15 | 36 ± 1 |  |  |  |  | 
2 | CNS(=O)(=O)Cc1ccc(Oc2cc(CNc3ncc(Cl)cn3)nc(C(F)(F)F)n2)cc1 [Example 10, 1-[4-[6-[[(5-Chloropyrimidin-2-yl)amino]methyl]-2-(trifluoromethyl)pyrimidin-4-yl]oxyphenyl]-N-methyl-methanesulfonamide] | 52 ± 27 | 17 ± 1 |  |  |  |  | 
3 | CN1CCN(c2nc(CNc3ncc(Cl)cn3)cc(Oc3ccc(CS(N)(=O)=O)cc3)n2)CC1 [Example 24, [4-[6-[[(5-Chloropyrimidin-2-yl)amino]methyl]-2-(4-methylpiperazin-1-yl)pyrimidin-4-yl]oxyphenyl]methanesulfonamide] | 579 ± 169 | 9 ± 6 | 0.8 ± 0.09 | −61 | −56 | −74 | 
4 | CCc1cnc(NCc2cc(Oc3ccc(CCNS(C)(=O)=O)cc3)nc(N)n2)nc1 [Example 57, N-[2-[4-[2-Amino-6-[[(5-ethylpyrimidin-2-yl)amino]methyl]pyrimidin-4-yl]oxyphenyl]ethyl]methanesulfonamide] | 103 ± 51 | 53 | 0.23 ± 0.03 |  |  |  | 
5 | O=C(NC1CCN(CCCCC2(C(=O)NCC(F)(F)F)c3ccccc3-c3ccccc32)CC1)c1ccccc1-c1ccc(C(F)(F)F)cc1 [lomitapide] |  |  |  |  |  |  | 8
